Results published in patent publication US11834458B2, “Anti-cancer nuclear hormone receptor-targeting compounds” (Nuvation Bio Inc., priority 2021, dated 2023).

Experiments:
[1] = system: MDAMB361 cells; assay: Cell viability assay, MDAMB361; format: cell-based; details: Homo sapiens, MDA-MB-361, 144 h, read-out: MDA-MB-361 (GI50, nM)
Protocol: (§1) Cell viability assay: LNCap, 22Rv1, MCF7, MDAMB361, T47D, and IEC6 cells are seeded at a density of 500-2000 cells/well in 96 well plates, and a ‘T0’ (timepoint 0) was included along with the assay plate. The plates are then incubated at 37° C., 5% CO2 in a cell culture incubator overnight. On the next day, the ‘T0’ plate was assayed using CellTiterGlo (Promega, Inc) according to the manufacturer's instructions. The appropriate compounds are diluted in DMSO and added to the assay plate (final DMSO concentration of 0.1-0.2%) on the next day. The assay plates are incubated for 6 days at 37° C., 5% CO2. After the incubation period, the plates are assayed using CellTiterGlo (Promega, Inc) according to the manufacturer's instructions and luminescence was read on the EnVision plate reader. Inhibition of the tested compounds was determined by the following formula: Inhibition rate (%)=(1−(RLU compound−RLU day0)/(RLU control−RLU day0))*100%. GraphPadPrism was used to analyze the data and determine GI50/IC50 values.

[2] = system: IEC6 cells; assay: Cell viability assay, IEC6; format: cell-based; details: Rattus norvegicus, IEC-6, 144 h, read-out: IEC-6 (IC50, nM)
In short: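 Cells seeded overnight at 37 °C, 5% CO2, with a T0 plate read at compound addition; compounds added in DMSO (final 0.1-0.2%) for 6 days. CellTiterGlo luminescence; inhibition calculated relative to day-0 and vehicle signals, giving GI50/IC50 values.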

[3] = molecular target: ER (Homo sapiens (Human), UniProt P03372); assay: ER antagonism assay; format: cell-based; details: SK-BR-3 cells transfected with ERE plasmid and ER, 100 nM β-Estradiol, 24 h
Sequence of ER (P03372 whole entry, looked up): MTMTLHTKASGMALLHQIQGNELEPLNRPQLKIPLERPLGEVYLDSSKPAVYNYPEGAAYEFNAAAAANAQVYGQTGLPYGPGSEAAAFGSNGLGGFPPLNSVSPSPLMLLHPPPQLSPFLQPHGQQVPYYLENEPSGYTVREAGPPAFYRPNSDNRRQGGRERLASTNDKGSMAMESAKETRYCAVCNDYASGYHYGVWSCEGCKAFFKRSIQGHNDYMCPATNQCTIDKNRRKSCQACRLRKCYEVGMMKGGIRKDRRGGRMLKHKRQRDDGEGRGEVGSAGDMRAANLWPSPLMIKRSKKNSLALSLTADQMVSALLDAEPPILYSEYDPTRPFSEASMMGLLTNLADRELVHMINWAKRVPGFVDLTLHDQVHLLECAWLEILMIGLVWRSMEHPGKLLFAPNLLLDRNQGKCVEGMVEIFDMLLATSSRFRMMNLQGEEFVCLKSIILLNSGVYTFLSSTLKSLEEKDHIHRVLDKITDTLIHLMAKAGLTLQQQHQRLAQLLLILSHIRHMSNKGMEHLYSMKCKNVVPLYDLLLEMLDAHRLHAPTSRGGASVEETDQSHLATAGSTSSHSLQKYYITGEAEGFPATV
Protocol: ER antagonism assay: To evaluate ER antagonist activity, SK-BR-3 cells were seeded at a density of 30000 cells/well in the assay plate. The assay plate was then incubated at 37° C., 5% CO2 for 24 h. A mixture of ERE plasmid and ER in opti-MEM media was incubated with lipofectamine 3000 in Opti-MEM media and incubated at room temperature for 15 mins. 10 μl of this transfection mix was added to each well of the assay plate and the assay plate was incubated at 37° C., 5% CO2 for 24 h. 100 nM β-Estradiol in 10 μL medium or 10 μL medium (control wells) was added to corresponding wells of assay plate and incubated at 37° C. 5% CO2 for 24 h. After the incubation period, 50 μl of Dual-glo luciferase reagent was added to the assay plate and mixed at room temperature for 20 mins on an orbital shaker, before reading out on the EnVision plate reader. 50 μL of Stop & Glo reagent was added to assay plate, mixed at room temperature for 20 minutes, and read on the Envision plate reader.

[4] = molecular target: ER Alpha-ligand binding domain (LBD) (Homo sapiens (Human), UniProt P03372); assay: ER binding assay (LanthaScreen TR-FRET ER Alpha Competitive Binding); details: Fluormone ES2 Green tracer 3 nM, 2 h room temperature
Sequence of ER Alpha-ligand binding domain (LBD) (P03372 whole entry, looked up, the tested form may be a part): as the sequence (P03372 whole entry, looked up) above
Protocol: ER binding assay: ERα binding was assessed using the LanthaScreen® TR-FRET ER Alpha Competitive Binding kit from ThermoFisherScientific. In this assay, a terbium-labeled anti-GST antibody was used to indirectly label GST-tagged ER Alpha-ligand binding domain (LBD) by binding to its GST tag. Competitive binding to the ER Alpha-LBD (GST) was detected by a test compound's ability to displace a fluorescent ligand (Fluormone™ ES2 Green tracer) from the ER Alpha-LBD (GST), which results in a loss of FRET signal between the Tb-anti-GST antibody and the tracer. Briefly, to assess ER binding of the DDC compounds, the test compounds (top dose 10 μM, 4 fold serial dilution, 8 point dose response) and controls were transferred to the assay plate. The Fluormone™ ES2 Green tracer (3 nM final concentration with assay buffer) was added to the assay plate. This was followed by addition of a mixture of the ER Alpha-LBD (GST) and terbium anti-GST antibody. After a 2 h incubation period at room temperature, the plate was read on the Envision plate reader and the TR-FRET ratio of 520:495 emissions were calculated and used to determine the IC50 from a dose response curve of the compound.

[5] = system: MCF7 cells; assay: Cell viability assay, MCF7; format: cell-based; details: Homo sapiens, MCF7, 144 h, read-out: MCF7 (GI50, nM)
Protocol: as §1

SMILES | GI50 [1] [nM] | IC50 [2] [nM] | IC50 [3] [nM] | IC50 [4] [nM] | GI50 [5] [nM]
CC[C@@]1(O)C(=O)OCc2c1cc1n(c2=O)Cc2cc3c(CN(C)C)c(OC(=O)N4CCN(CCCCCCOc5cc(F)c(C6c7[nH]c8ccccc8c7CC(C)N6CC(C)(C)F)c(F)c5)CC4)ccc3nc2-1 (stereo in doubt) [Compound 13, (S)-10-((Dimethylamino)methyl)-4-ethyl-4-hydroxy-3,14-dioxo-3,4,12,14-tetrahydro-1H-pyrano[3′,4′:6,7]indolizino[1,2-b]quinolin-9-yl 4-(6-(3,5-difluoro-4-((1S,3S)-2-(2-fluoro-2-methylpropyl)-3-methyl-2,3,4,9-tetrahydro-1H-pyrido[3,4-b]indol-1-yl)phenoxy)hexyl)piperazine-1-carboxylate] | 10 to 500 | 501 to 1000 | 10 to 500 | 10 to 500 | 10 to 500
CCc1c2c(nc3ccc(OC(=O)N4CCN(CCCCCCOc5cc(F)c([C@@H]6c7[nH]c8ccccc8c7C[C@@H](C)N6CC(C)(C)F)c(F)c5)CC4)cc13)-c1cc3c(c(=O)n1C2)COC(=O)[C@]3(O)CC [Compound 2, (S)-4,11-diethyl-4-hydroxy-3,14-dioxo-3,4,12,14-tetrahydro-1H-pyrano[3′,4′:6,7]indolizino[1,2-b]quinolin-9-yl 4-(6-(3,5-difluoro-4-((1R,3R)-2-(2-fluoro-2-methylpropyl)-3-methyl-2,3,4,9-tetrahydro-1H-pyrido[3,4-b]indol-1-yl)phenoxy)hexyl)piperazine-1-carboxylate] | 10 to 500 | – | 10 to 500 | < 10 | 10 to 500
